Source: article PMC8305076, “Comprehensive Evaluation of Biological Effects of Pentathiepins on Various Human Cancer Cell Lines and Insights into Their Mode of Action” (International Journal of Molecular Sciences, 2021)

Columns and labels:
Assay type in all cases: cell-based, human
[1] = test system: YAPC; assay: cell cycle analysis (PI staining); details: IC90, 24 and 48 h (Figure 19c)
Description: (§1) The potent cytotoxicity and the potential to inhibit the proliferation of cancer cells accompanied by DNA damage effects raised the question as to whether cell cycle progression might be affected as a result of treatment with pentathiepins.
(§2) Cells were harvested by trypsinization, collected in 1.5 mL tubes, and washed twice with PBS by centrifuging for 5 min at 500× g and discarding the supernatant after every step. For fixation, 500 µL of ice-cold ethanol (70%) was added dropwise under vortexing with a subsequent incubation on ice for 30 min. Then, the cells were centrifuged for 10 min at 4000 rpm and 4 °C, the supernatant was removed, and the cells were resuspended in 500 µL of PBS containing 25 µg/mL of PI and 100 µg/mL of RNase. The staining solution was incubated for 30 min, and the cell suspension was measured at λEx/Em = 488/655–730 nm using a MACSquant Analyzer 10 (Miltenyi Biotec, Teterow, Germany).

[2] = test system: PARP1 in Siso; assay: Western blot of cleaved PARP1; details: IC90, 24 h
Description: (§3) In addition to general flow cytometric and microscopic analyses, Western blotting was performed to detect the apoptosis-relevant protein PARP1 (poly(ADP-ribose) polymerase 1) and its cleavage fragment (Figure 17 and Figures S29–S34). Full-length PARP1 (116 kDa) is involved in DNA repair, and a cleavage by caspases (fragment sizes 24 and 89 kDa) caused by caspase-3 and -7 is a hallmark of late apoptosis.
(§4) All detected specific bands were normalized to the total protein load per lane by the TGX stain-free gel system from Bio-Rad.
(§5) All Western blot analyses were performed with reagents, material, and devices purchased from Bio-Rad (Feldkirchen, Germany) if not stated otherwise. To obtain protein lysates, we seeded cells and treated them as described for the other methods. […] Cells were harvested by trypsinization and centrifugation for 5 min at 500× g. After a washing step with PBS, the cell pellet was resuspended in lysis buffer (Tris 50 mM (pH 7.4), 100 mM NaCl, 100 mM NaF, 5 mM EDTA, 0.2 mM Na3VO4, 0.1% Triton-X, and 1% protease inhibitor cocktail added immediately before use). Lysis was supported by incubating the samples for 10 min in an ultrasonic bath before centrifuging for 10 min at 18,000 × g and 4 °C. Protein quantification was performed via the Bradford method using ROTI®nanoquant reagent (Carl Roth GmbH, Karlsruhe, Germany) and bovine serum albumin as calibration standard. For electrophoretic separation, 15–40 µg of protein was loaded per well of a polyacrylamide gel (Mini- or Midi-Protean® TGX stain-free gel, Bio-Rad, Feldkirchen, Germany), and subsequent blotting was performed with Trans-Blot®Turbo™TransferPack Mini or Midi PVDF membranes from Bio-Rad (Feldkirchen, Germany). The membranes were blocked with a 10% non-fat milk powder solution in Tris-buffered saline (TBS; 2.42 g/L Tris, 8.48 g/L NaCl in water) plus 0.5% Tween-20 (TBST) for 1 h at RT. Incubation with primary antibodies took place over night at 4 °C in a 1:1000 dilution in TBST containing BSA (1%). The secondary antibodies conjugated to horse-radish peroxidase were diluted 1:10,000 in TBST and 1% BSA, and incubated for 4 h at RT. A detection step followed, applying Clarity™Western ECL substrate with subsequent imaging via the INTAS Advanced Fluorescence Imager. Between all incubation steps, the blots were washed three times for 10 min with TBST. The bands were quantified with the ImageLab software and normalized using the total protein quantification of the TGX stain-free gel system from Bio-Rad.

[3] = test system: PARP1 in A2780; assay: Western blot of cleaved PARP1; details: IC90, 24 h
Description: as §3, §4, §5

[4] = test system: HAP-1.KO.GPx1; assay: annexin V-FITC/PI apoptosis assay; details: for early apoptotic cells: pentathiepins IC90, doxorubicin 0.5 µM, 24 h
Description: As reported in our earlier publication, a representative pentathiepin was capable of inducing apoptosis in cancer cell lines. Here, we tested compounds 1–6 for their ability to trigger this particular modality of cell death in a subset of four cell lines: HAP-1, HAP-1.KO.GPx1, A2780, and Siso. A flow cytometric assay was performed, allowing us to discriminate between viable, early, and late apoptotic cells (representative dot plots can be found in Figure S47). FITC-labeled annexin V was used to assess the externalization of phosphatidyl serine as a hallmark of early apoptosis induction. The addition of propidium iodide (PI) enabled the detection of late apoptotic cells as it only permeates porous cell membranes and exerts fluorescence once bound to double-stranded DNA.
The annexin V-FITC/PI assay, which discriminates between viable, early, and late apoptotic cells within a sample population, was performed according to the manufacturer’s instructions (Miltenyi Biotec, Teterow, Germany). Briefly, 125,000 cells were seeded in 2 mL per well of a 6-well plate, allowed to adhere overnight, and subsequently treated with the respective pentathiepin (IC90, see Table S4) diluted in 3 mL of medium. After incubation periods of 6, 24, or 48 h, the cells were harvested, washed with the provided binding buffer, and stained with the annexin V-FITC reagent for 20 min at room temperature (RT) in the dark. After another washing step, the pellet was resuspended, and PI was added immediately before flow cytometric measurement at λEx/Em = 488/525 ± 50 nm for FITC and λEx/Em = 488/655–730 nm for PI with the MACSquant Analyzer 10 (Miltenyi Biotec, Teterow, Germany).

[5] = test system: A2780; assay: cell cycle analysis (PI staining); details: IC90, 48 h
Description: as §1, §2

CCOc1c2c(c3cnc4[nH]c(-c5ccc(OC)cc5)cc4n13)SSSSS2 [Compound 1, 11-Ethoxy-2-(4-methoxyphenyl)-3H-[1,2,3,4,5]pentathiepino[6′,7′:3,4]pyrrolo[1,2-a]pyrrolo[2,3-e]pyrazine]
increase of G0/G1-phase cells [1]: up to 18%

CCOc1c2c(c3ccc(C(=O)N4CCOCC4)cn13)SSSSS2 [Compound 3, (6-Ethoxy-[1,2,3,4,5]pentathiepino[6,7-a]indolizin-9-yl)(morpholino)methanone]
fraction of 89 kDa PARP1 [2]: very small and only confirmed after treatment with pentathiepins 3 or 5
fraction of 89 kDa PARP1 [3]: very small and only confirmed after treatment with pentathiepins 3 or 5
late apoptotic cells ([4]; IC90, 24 h): 6%
early apoptotic cells [4]: 34%

CCOc1c2c(c3ccc(C(=O)N4CCN(C(=O)c5ccc(F)cc5)CC4)cn13)SSSSS2 [Compound 5, (6-Ethoxy-[1,2,3,4,5]pentathiepino[6,7-a]indolizin-9-yl)(4-(4-fluorobenzoyl)piperazinyl)methanone]
fraction of 89 kDa PARP1 [2]: very small and only confirmed after treatment with pentathiepins 3 or 5
fraction of 89 kDa PARP1 [3]: very small and only confirmed after treatment with pentathiepins 3 or 5
early apoptotic cells [4]: 15%

CCOc1c2c(c3ccc(C(=O)N4CCN(S(=O)(=O)c5ccc(C)cc5)CC4)cn13)SSSSS2 [Compound 6, (6-Ethoxy-[1,2,3,4,5]pentathiepino[6,7-a]indolizin-9-yl)(4-tosylpiperazinyl)methanone]
relative amount of sub G1-phase cells [5]: 30%
increase of G0/G1-phase cells [1]: up to 18%
